Source: patent publication US6787562B2, “Substituted aryl and heteroaryl compounds as E-type prostaglandin antagonists” (Zeneca Ltd., priority 1995, dated 2004)

Legend:
[1] = tested on: guinea pig ileum; conditions: cited from earlier work
[2] = tested on: dog fundus; conditions: cited from earlier work

melting point | SMILES | effect of PGE2 on tissue blocked [1] | effect of PGE2 on tissue blocked [2]
126 to 127 °C | O=C(O)c1ccc(NCc2cc(Br)ccc2CCc2ccccc2)cc1 [Example 4, 4-[N-(5-Bromo-2-(phenethyl)benzyl)amino]Benzoic Acid] |  | 
70 to 75 °C | CCN(Cc1ccccc1Oc1ccccc1)c1ccc(C(=O)O)nn1 [Example 12, 6-(N-Ethyl-N-(2-phenoxybenzyl)amino)pyridazine-3-carboxylic Acid] |  | 
170.5 to 172 °C | CCN(Cc1ccccc1Oc1ccccc1)c1ccc(C(=O)O)cn1 [Example 13, 2-(N-ethyl-N-(2-phenoxybenzyl)amino)pyridine-5-carboxylic Acid] |  | 
144 °C | O=C(O)c1ccc(SCc2ccccc2OCc2ccccc2)cc1 [Example 18, 4-[2-Benzyloxybenzylthio]benzoic Acid] |  | 
108 °C | O=C(Nc1cccnc1)c1ccc(SCc2ccccc2OCc2ccccc2)cc1 [Example 19, N-(3-Pyridyl)-4-[2-benzyloxybenzylthio]benzamide] |  | 
176.8 to 178.8 °C | O=C(O)c1ccc(OCc2ccccc2OCc2ccccc2)cc1 [Example 21, 4-(2-(Benzyloxy)benzyloxy)benzoic Acid] |  | 
108 °C | CC(Oc1ccc(C(=O)O)cc1)c1ccccc1OCc1ccccc1 (centres unmarked) [Example 22, 4-(1-(2-(Benzyloxy)phenyl)ethoxy)benzoic Acid] |  | 
178 to 180 °C | O=C(O)c1ccc(OCc2ccccc2CCc2ccccc2)cc1 [Example 23, 4-(2-(phenethyl)benzyloxy)benzoic Acid] |  | 
90 to 91 °C | O=C(O)c1ccc(CCCc2ccccc2Sc2ccccc2)cc1 [Example 32, 4-[3-(2-(phenylthio)phenyl)propyl]benzoic Acid] |  | 
134 to 137 °C | O=C(O)c1ccc(CCc2ccccc2CCc2ccccc2)cc1O [Example 33, 2-Hydroxy-4-[(2-phenethyl)phenethyl]benzoic Acid] |  | 
135 to 136 °C | O=C(O)c1ccc(CCCc2ccccc2Cc2ccccc2)cc1 [Example 34, 4-[3-(2-benzylphenyl)propyl]benzoic Acid] |  | 
216 to 217 °C | O=C(O)c1ccc(CNc2cc(Br)ccc2OCc2ccccc2)cc1 [Example 37, 4-[N-(2-Benzyloxy-5-bromophenyl)aminomethyl]benzoic Acid] |  | 
94.5 to 95 °C | CCN(Cc1ccc(C(=O)O)cc1)c1cc(Br)ccc1OCc1ccccc1 [Example 38, 4-[N-(2-Benzyloxy-5-bromophenyl)-N-ethylaminomethyl]benzoic Acid] |  | 
186.5 to 187 °C | CC(Nc1cc(Br)ccc1OCc1ccccc1)c1ccc(C(=O)O)cc1 (centres unmarked) [Example 39, 4-[1-(N-(2-Benzyloxy-5-bromophenyl)-amino)ethyl]benzoic Acid] |  | 
181.5 to 182 °C | CC(c1ccc(C(=O)O)cc1)N(C)c1ccc(Br)cc1OCc1ccccc1 (centres unmarked) [Example 40, 4-[1-(N-(2-Benzyloxy-4-bromophenyl)-N-methylamino)ethyl]benzoic Acid] |  | 
 | CC(=O)NNC(=O)N1Cc2ccccc2Oc2ccc(Cl)cc21 [SC-19220] | blocks the effect of PGE2 | blocks the effect of PGE2
